Drawing on US20260085053A1, “BENZOFURAN DERIVATIVES AS SIK INHIBITORS AND THE USE THEREOF” (BEONE MEDICINES I GMBH, priority 2023, published 2026), this text covers IC50 for 21 compounds.

Each structure is given as a SMILES string.

Test [1] has as its target T1, SIK1 kinase (aa1-303, Thermo Fisher) (Homo sapiens, UniProt P57059).
T1 construct: SIK1 kinase (aa1-303, Thermo Fisher); purchased Thermo Fisher
Put plainly: Biochemical activities determination for SIK1 protein (TR-FRET). The conditions noted are these: 110 uM ATP, 0.5 μM STK1 substrate. The essentials:
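TR-FRET kinase assay with SIK1 (aa1-303), 110 uM ATP, 0.5 μM STK1 substrate and 0-10 μM compound in Tris pH 7.5 with MgCl2, EGTA, DTT, Triton X-100. Enzyme preincubated with compound 60 min, reaction 180 min at room temperature; 665/620 nm ratio after overnight detection; IC50 from four-parameter logistic fit.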
For orientation: In TR-FRET formats the signal depends on donor and acceptor labels being close together.

Test [2] has as its target T2, SIK2 kinase (full length, Thermo Fisher) (Homo sapiens, UniProt Q9H0K1).
T2 construct: SIK2 kinase (full length, Thermo Fisher); purchased Thermo Fisher
In words: Biochemical activities determination for SIK2 protein (TR-FRET). The conditions noted are these: 80 uM ATP, 0.5 μM substrate. The essentials:
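Full-length SIK2 preincubated 60 min with 0–10 μM compound, then reacted 180 min at room temperature with 80 uM ATP and 0.5 μM biotinylated substrate (pH 7.5 Tris/MgCl2 buffer). Phosphorylation detected by TR-FRET (665/620 nm ratio, cryptate antibody/streptavidin-XL665) after overnight incubation; IC50 from four-parameter logistic fit.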

In test [3] the target is T3, SIK3 kinase (aa59-365, Thermo Fisher) (Homo sapiens, UniProt Q9Y2K2).
T3 construct: SIK3 kinase (aa59-365, Thermo Fisher); purchased Thermo Fisher
T3 sequence (Q9Y2K2 59-365): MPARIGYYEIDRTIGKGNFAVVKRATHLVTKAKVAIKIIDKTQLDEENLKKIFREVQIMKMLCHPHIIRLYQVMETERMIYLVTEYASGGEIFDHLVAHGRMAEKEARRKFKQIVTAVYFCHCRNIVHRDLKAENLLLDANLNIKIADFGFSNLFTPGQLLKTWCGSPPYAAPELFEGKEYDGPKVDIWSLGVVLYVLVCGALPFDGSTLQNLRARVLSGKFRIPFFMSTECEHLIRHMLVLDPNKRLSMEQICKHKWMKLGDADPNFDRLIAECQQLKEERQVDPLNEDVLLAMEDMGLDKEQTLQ
Put plainly: Biochemical activities determination for SIK3 protein (TR-FRET). The settings on record: 125 uM ATP, 0.5 μM STK1 substrate. The method in brief: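 SIK3 (aa59-365) was preincubated with compound (0-10 μM) for 60 min at room temperature in Tris buffer pH 7.5. The reaction was then started with 125 uM ATP and 0.5 μM STK1 substrate and run 180 min at room temperature. Phospho-substrate was detected by HTRF (665/620 nm ratio), and IC50 came from a four-parameter logistic fit.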

T1 sequence (P57059 1-303): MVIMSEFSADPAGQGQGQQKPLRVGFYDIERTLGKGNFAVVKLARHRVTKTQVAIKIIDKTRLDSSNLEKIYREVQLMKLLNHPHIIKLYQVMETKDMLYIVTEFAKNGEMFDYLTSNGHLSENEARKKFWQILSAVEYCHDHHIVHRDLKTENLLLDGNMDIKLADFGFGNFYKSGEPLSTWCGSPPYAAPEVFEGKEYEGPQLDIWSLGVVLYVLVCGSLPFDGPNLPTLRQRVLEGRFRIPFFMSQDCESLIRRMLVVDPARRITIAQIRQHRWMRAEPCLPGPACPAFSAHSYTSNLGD
T2 sequence (Q9H0K1 whole entry): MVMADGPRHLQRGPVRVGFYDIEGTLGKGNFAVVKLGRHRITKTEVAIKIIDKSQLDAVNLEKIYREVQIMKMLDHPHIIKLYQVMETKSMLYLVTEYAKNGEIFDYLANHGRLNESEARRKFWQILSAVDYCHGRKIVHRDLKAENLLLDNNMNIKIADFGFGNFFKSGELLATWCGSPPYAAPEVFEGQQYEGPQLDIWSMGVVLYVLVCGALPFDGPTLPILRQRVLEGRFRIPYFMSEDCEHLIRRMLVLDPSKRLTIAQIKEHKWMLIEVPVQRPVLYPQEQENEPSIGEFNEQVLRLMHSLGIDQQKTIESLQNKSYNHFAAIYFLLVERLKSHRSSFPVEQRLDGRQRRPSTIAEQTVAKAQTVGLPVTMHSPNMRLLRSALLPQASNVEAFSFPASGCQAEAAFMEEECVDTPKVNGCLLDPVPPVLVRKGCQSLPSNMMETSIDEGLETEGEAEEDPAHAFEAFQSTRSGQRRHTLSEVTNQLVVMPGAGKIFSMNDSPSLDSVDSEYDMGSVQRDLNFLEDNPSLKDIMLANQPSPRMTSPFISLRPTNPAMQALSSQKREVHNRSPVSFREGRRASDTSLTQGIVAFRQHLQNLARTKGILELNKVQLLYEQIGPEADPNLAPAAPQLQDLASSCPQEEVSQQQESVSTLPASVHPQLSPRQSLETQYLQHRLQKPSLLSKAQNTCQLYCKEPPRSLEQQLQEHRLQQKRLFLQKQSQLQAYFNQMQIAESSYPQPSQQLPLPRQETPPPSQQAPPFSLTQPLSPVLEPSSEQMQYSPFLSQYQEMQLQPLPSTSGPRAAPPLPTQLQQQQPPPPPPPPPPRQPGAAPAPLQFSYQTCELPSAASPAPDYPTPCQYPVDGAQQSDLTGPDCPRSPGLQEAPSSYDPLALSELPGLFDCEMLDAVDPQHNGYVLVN

As for `O=C(NC1CC1)c1c(OC(F)F)cc(-c2coc3cc(OCCN4CCCC4)ccc23)cc1OC1CC1` [Compound 121, 2-cyclopropoxy-N-cyclopropyl-6-(difluoromethoxy)-4-(6-(2-(pyrrolidin-1-yl)ethoxy)benzofuran-3-yl)benzamide], the IC50 was more than 10000 nM in test [1], 438 nM in test [2] and 2120 nM in test [3].

As for `CN1CC(n2cc(-c3ccc4c(-c5cc6c(c(OC(F)F)c5)C(=O)N(CC(F)(F)F)CC6)coc4c3)cn2)C1` [Compound 44, 8-(difluoromethoxy)-6-(6-(1-(1-methylazetidin-3-yl)-1H-pyrazol-4-yl)benzofuran-3-yl)-2-(2,2,2-trifluoroethyl)-3,4-dihydroisoquinolin-1 (2H)-one], the IC50 was determined as 538 nM in test [1], 5.2 nM in test [2] and 45 nM in test [3].

Regarding `COc1cc(-c2coc3cc(-c4cnn(C)c4)ccc23)cc2c1C(=O)N(C1CC1)CC2` [Compound 27, 2-cyclopropyl-8-methoxy-6-(6-(1-methyl-1H-pyrazol-4-yl)benzofuran-3-yl)-3,4-dihydroisoquinolin-1 (2H)-one], the IC50 in test [1] turned out to be 1130 nM; in test [2], 34 nM; in test [3] it was 72 nM.

For the compound `COc1cc(-c2coc3cc(OC(C)CN4CCCC4)ccc23)cc(OC(F)F)c1C(=O)N[C@@H]1C[C@@H]1F` (stereo partly drawn) [Compound 68, 2-(difluoromethoxy)-N-((1R,2S)-2-fluorocyclopropyl)-6-methoxy-4-(6-((1-(pyrrolidin-1-yl)propan-2-yl)oxy)benzofuran-3-yl)benzamide], the IC50 worked out at 8180 nM in test [1], 90 nM in test [2] and 139 nM in test [3].

Regarding `COc1cc(-c2coc3cc(OCCN4CCCCC4)ccc23)cc2c1C(=O)N(CC(F)(F)F)CC2` [Compound 64, 8-methoxy-6-(6-(2-(piperidin-1-yl)ethoxy)benzofuran-3-yl)-2-(2,2,2-trifluoroethyl)-3,4-dihydroisoquinolin-1 (2H)-one], the IC50 in test [1] is more than 10000 nM; in test [2] it was 73 nM; in test [3], 415 nM.

Consider `COc1cc(-c2coc3cc(-c4cnn(C)c4)ccc23)cc2c1C(=O)N(CC(F)(F)F)CC2(C)C` [Compound 33, 8-methoxy-4,4-dimethyl-6-(6-(1-methyl-1H-pyrazol-4-yl)benzofuran-3-yl)-2-(2,2,2-trifluoroethyl)-3,4-dihydroisoquinolin-1 (2H)-one], for which the IC50 in test [1] is 9100 nM; in test [2] it was 82 nM; in test [3], 156 nM.

As to `CC(C)Oc1cc(-c2coc3cc(OCCN4CCCC4)ccc23)cc(OC(F)F)c1C(=O)NC1CC1` [Compound 120, N-cyclopropyl-2-(difluoromethoxy)-6-isopropoxy-4-(6-(2-(pyrrolidin-1-yl)ethoxy)benzofuran-3-yl)benzamide], the IC50 in test [1] is more than 10000 nM; in test [2], 619 nM; in test [3] it was 2540 nM.

Turning to `COc1cc(-c2coc3cc(-c4cnn(C5CCN(C)C5)c4)ccc23)cc2c1C(=O)N(CC(F)(F)F)CC2` (stereo not drawn) [Compound 51, 8-methoxy-6-(6-(1-(1-methylpyrrolidin-3-yl)-1H-pyrazol-4-yl)benzofuran-3-yl)-2-(2,2,2-trifluoroethyl)-3,4-dihydroisoquinolin-1 (2H)-one], the IC50 in test [1] is 317 nM; in test [2] it was 3.7 nM; in test [3], 26 nM.

For the compound `COc1cc(-c2coc3cc(-c4cn(C)nc4C)ccc23)cc2c1C(=O)N(CC(F)(F)F)CC2` [Compound 15, 6-(6-(1,3-dimethyl-1H-pyrazol-4-yl)benzofuran-3-yl)-8-methoxy-2-(2,2,2-trifluoroethyl)-3,4-dihydroisoquinolin-1 (2H)-one], the IC50 in test [1] was 6040 nM; in test [2] it was 95 nM; in test [3], 174 nM.

For `CCn1cc(-c2ccc3c(-c4cc5c(c(OC)c4)C(=O)N(CC(F)(F)F)CC5)coc3c2)cn1` [Example 2, 6-(6-(1-ethyl-1H-pyrazol-4-yl)benzofuran-3-yl)-8-methoxy-2-(2,2,2-trifluoroethyl)-3,4-dihydroisoquinolin-1 (2H)-one], the IC50 came out at 375 nM in test [1], 15 nM in test [2] and 28 nM in test [3].

As for `O=C1c2c(cc(-c3coc4cc(-c5cnn(C6CNC6)c5)ccc34)cc2OC(F)F)CCN1CC(F)(F)F` [Compound 42, 6-(6-(1-(azetidin-3-yl)-1H-pyrazol-4-yl)benzofuran-3-yl)-8-(difluoromethoxy)-2-(2,2,2-trifluoroethyl)-3,4-dihydroisoquinolin-1 (2H)-one], the half-inhibitory concentration (IC50) in test [1] was determined as 1590 nM; in test [2] it was 25 nM; in test [3] it was 115 nM.

As for `O=C(NC1CC1)c1c(NCCO)cc(-c2coc3cc(OCCN4CCCC4)ccc23)cc1OC(F)F` [Compound 104, N-cyclopropyl-2-(difluoromethoxy)-6-((2-hydroxyethyl)amino)-4-(6-(2-(pyrrolidin-1-yl)ethoxy)benzofuran-3-yl)benzamide], the IC50 in test [1] came to 4580 nM; in test [2], 52 nM; in test [3], 211 nM.

For the compound `COc1ccc(-c2ccc3c(-c4cc5c(c(OC)c4)C(=O)N(CC(F)(F)F)CC5)coc3c2)cn1` [Example 9, 8-methoxy-6-(6-(6-methoxypyridin-3-yl)benzofuran-3-yl)-2-(2,2,2-trifluoroethyl)-3,4-dihydroisoquinolin-1 (2H)-one], the figures for the IC50 in test [1], in test [2] and in test [3] were more than 10000 nM, 296 nM and 334 nM, respectively.

For the compound `Cc1ccc(-c2ccc3c(-c4cc5c(c(OC(F)F)c4)C(=O)N(CC(F)(F)F)CC5)coc3c2)nn1` [Example 14, 8-(difluoromethoxy)-6-(6-(6-methylpyridazin-3-yl)benzofuran-3-yl)-2-(2,2,2-trifluoroethyl)-3,4-dihydroisoquinolin-1 (2H)-one], the figures for the IC50 in test [1], in test [2] and in test [3] were more than 10000 nM, 310 nM and 329 nM, respectively.

Turning to `CN1CC[C@H](Oc2cc(-c3coc4cc(OCCN5CCCC5)ccc34)cc(OC(F)F)c2C(=O)NC2CC2)C1` [Compound 111, (S)—N-cyclopropyl-2-(difluoromethoxy)-6-((1-methylpyrrolidin-3-yl)oxy)-4-(6-(2-(pyrrolidin-1-yl)ethoxy)benzofuran-3-yl)benzamide], the figures for the IC50 in test [1], in test [2] and in test [3] were more than 10000 nM, 1190 nM and 5700 nM, respectively.

On to `COc1cc(-c2coc3cc(OCCN4CCN(C)CC4)ccc23)cc(OC(F)F)c1C(=O)N[C@@H]1C[C@@H]1F` [Compound 83, 2-(difluoromethoxy)-N-((1R,2S)-2-fluorocyclopropyl)-6-methoxy-4-(6-(2-(4-methylpiperazin-1-yl)ethoxy)benzofuran-3-yl)benzamide], for which the IC50 is 737 nM in test [1], 13 nM in test [2] and 75 nM in test [3].

Regarding `CN(C)CCOc1cc(-c2coc3cc(OCCN4CCCC4)ccc23)cc(OC(F)F)c1C(=O)NC1CC1` [Compound 118, N-cyclopropyl-2-(difluoromethoxy)-6-(2-(dimethylamino)ethoxy)-4-(6-(2-(pyrrolidin-1-yl)ethoxy)benzofuran-3-yl)benzamide], the figures for the IC50 in test [1], in test [2] and in test [3] were more than 10000 nM, 781 nM and 6310 nM, respectively.

As for `COc1cc(-c2coc3cc(-c4cn(C)cn4)ccc23)cc2c1C(=O)N(CC(F)(F)F)CC2` [Example 7, 8-methoxy-6-(6-(1-methyl-1H-imidazol-4-yl)benzofuran-3-yl)-2-(2,2,2-trifluoroethyl)-3,4-dihydroisoquinolin-1 (2H)-one], the IC50 in test [1] turned out to be 671 nM; in test [2], 14 nM; in test [3], 60 nM.

Turning to `N#CCCN1CC(n2cc(-c3ccc4c(-c5cc6c(c(OC(F)F)c5)C(=O)N(CC(F)(F)F)CC6)coc4c3)cn2)C1` [Compound 45, 3-(3-(4-(3-(8-(difluoromethoxy)-1-oxo-2-(2,2,2-trifluoroethyl)-1,2,3,4-tetrahydroisoquinolin-6-yl)benzofuran-6-yl)-1H-pyrazol-1-yl)azetidin-1-yl) propanenitrile], the IC50 was found to be 560 nM in test [1], 9.8 nM in test [2] and 28 nM in test [3].

As for `O=C(NC1CC1)c1c(F)cc(-c2coc3cc(OCCN4CCCC4)ccc23)cc1OC(F)F` [Compound 105, N-cyclopropyl-2-(difluoromethoxy)-6-fluoro-4-(6-(2-(pyrrolidin-1-yl)ethoxy)benzofuran-3-yl)benzamide], the IC50 in test [1] is more than 10000 nM; in test [2] it was 398 nM; in test [3], 1770 nM.

Take `COc1cc(-c2coc3cc(OCCN4CCC4)ccc23)cc(OC(F)F)c1C(=O)N[C@@H]1C[C@@H]1F` [Compound 75, 4-(6-(2-(azetidin-1-yl)ethoxy)benzofuran-3-yl)-2-(difluoromethoxy)-N-((1R,2S)-2-fluorocyclopropyl)-6-methoxybenzamide]: the IC50 in test [1] amounted to 1740 nM; in test [2], 16 nM; in test [3] it was 93 nM.

A word on the IC50: it is the concentration that gives 50% inhibition. A lower IC50 goes with greater potency.
